Experimental data published in patent US11090247B2, “Compositions for protecting the skin from heavy metals and formaldehyde” (FNG RESEARCH CO., LTD., priority 2016, dated 2021).

Legend:
[1] = Removal test of heavy metals of active ingredients (pig skin, ICP-MS): Cu; settings: contaminated pig skin
Method: (§1) (1) Preparation of Heavy Metal Contamination Sources and Pig Skin Samples
(§2) A pig was slaughtered, flayed and the bristle was shaved. The pig skin was cut to prepare 5*5 cm size of skin samples respectively.
(§3) The said skin samples were cleanly wiped with wet gauze, and then, added to 50 ml of methanol and extracted by shaking with ultrasonic for 60 min. 50 ml of methanol was further added and mixed. The pig skin samples were removed from the extracted solutions to prepare the test solutions.
(§4) The test solutions were analyzed for heavy metal components using an inductively coupled plasma mass spectrometer (ICP-MS, Xseries™ 2, Thermo Fisher Scientific, UK).

[2] = system: human skin; test: Skin irritation test of active ingredient (patch method, CTFA guidelines); type: in vivo; parameters: key to Degree of irritation: 0–0.1 none, 0.11–0.3 weak, 0.31–0.5 moderate, ≥0.51 strong irritation; settings: 20 people, patch 24 hours; for Test result(number of subject) (+): (+): Apparent reddening than periphery; for Test result(number of subject) (++): (++): More reddened and swollen than periphery; for Test result(number of subject) (±): (±): slightly reddish than the periphery; for Test result(number of subject) (−): (−): No erythema or particularly no symptoms
Method: A total of 20 people (10 men and 10 women in their 20 s and 30 s) were tested for skin irritation using the patch method according to the guidelines of CTFA (The Cosmetic, Toiletry & Fragrance Association, Inc. Washington, D.C.).
A filter paper disk was placed in an 8 mm diameter, 10 panels of pin chamber.
After 24 hours, the pin chamber was removed, and skin conditions were visually observed.
[Criteria for Skin Irritation]
(−): No erythema or particularly no symptoms; (±): slightly reddish than the periphery; (+): Apparent reddening than periphery; (++): More reddened and swollen than periphery.
[Grade for Skin Irritation]
Degree of irritation 0-0.1: Grade I (unstimulated);
Degree of irritation 0.11-0.3: Grade II (weakly stimulated);
Degree of irritation 0.31-0.5: Grade III (moderately stimulated);
Degree of irritation 0.51 or more: Grade IV (strongly stimulated)

[3] = Formaldehyde removing ability test (GC); settings: 2.0% formaldehyde solution; for Area (mAU*min) 30 min: formaldehyde GC area after 30 min; for Area (mAU*min) 30 min / Area (mAU*min) 180 min: 3 molar equivalents, room temperature; for Area (mAU*min) 180 min: formaldehyde GC area after 180 min; for Area (mAU*min) Initial: formaldehyde GC area, initial state, 3 molar equivalents of compound
[4] = Removal test of heavy metals of active ingredients (pig skin, ICP-MS): Cd; settings: contaminated pig skin
Method: as §1, §2, §3, §4

[5] = Removal test of heavy metals of active ingredients (pig skin, ICP-MS): Pb; settings: contaminated pig skin
Method: as §1, §2, §3, §4

Compound | Removal of Heavy metals Cu (%) ([1]; 0.1 wt % aqueous solution) | Removal of Heavy metals Cu (%) ([1]; 0.5 wt % aqueous solution) | Removal of Heavy metals Cu (%) ([1]; 1.0 wt % aqueous solution) | Degree of irritation ([2]; 0.1 wt %) | Grade ([2]; 0.1 wt %) | Test result(number of subject) (+) ([2]; 0.1 wt %) | Test result(number of subject) (++) ([2]; 0.1 wt %) | Test result(number of subject) (±) ([2]; 0.1 wt %) | Test result(number of subject) (−) ([2]; 0.1 wt %) | Degree of irritation ([2]; 0.5 wt %) | Grade ([2]; 0.5 wt %) | Test result(number of subject) (+) ([2]; 0.5 wt %) | Test result(number of subject) (++) ([2]; 0.5 wt %) | Test result(number of subject) (±) ([2]; 0.5 wt %) | Test result(number of subject) (−) ([2]; 0.5 wt %) | Degree of irritation ([2]; 1.0 wt %) | Grade ([2]; 1.0 wt %) | Test result(number of subject) (+) ([2]; 1.0 wt %) | Test result(number of subject) (++) ([2]; 1.0 wt %) | Test result(number of subject) (±) ([2]; 1.0 wt %) | further results
O=C(O)c1cncc(N2CCN(c3cncc(C(=O)O)c3)CCN(c3cncc(C(=O)O)c3)CCN(c3cncc(C(=O)O)c3)CC2)c1 [Embodiment 7, 5,5′,5″,5′″-(1,4,7,10-tetraazacyclododecane-1,4,7,10-tetrayl)tetranicotinic acid] | 93.8% | 95.1% | 96.0% | 0 | I (Degree of irritation 0-0.1: Grade I (unstimulated)) | 0 | 0 | 0 | 20 | 0 | I (Degree of irritation 0-0.1: Grade I (unstimulated)) | 0 | 0 | 0 | 20 | 0 | I (Degree of irritation 0-0.1: Grade I (unstimulated)) | 0 | 0 | 0 | Test result(number of subject) (−) ([2]; 1.0 wt %): 20; Area (mAU*min) 30 min [3]: 0.181 mAU*min; Area (mAU*min) 180 min [3]: 0 mAU*min; Area (mAU*min) Initial [3]: 0.305 mAU*min; Removal of Heavy metals Cd (%) ([4]; 0.1 wt % aqueous solution): 87.9%; Removal of Heavy metals Cd (%) ([4]; 0.5 wt % aqueous solution): 89.4%; Removal of Heavy metals Cd (%) ([4]; 1.0 wt % aqueous solution): 90.7%; Removal of Heavy metals Pb (%) ([5]; 0.1 wt % aqueous solution): 90.8%; Removal of Heavy metals Pb (%) ([5]; 0.5 wt % aqueous solution): 93.1%; Removal of Heavy metals Pb (%) ([5]; 1.0 wt % aqueous solution): 93.6%
O=C(O)c1ccc(N2CCN(c3ccc(C(=O)O)o3)CCN(c3ccc(C(=O)O)o3)CCN(c3ccc(C(=O)O)o3)CC2)o1 [Embodiment 8, 5,5′,5″,5′″-(1,4,7,10-tetraazacyclododecane-1,4,7,10-tetrayl)tetrakis(furan-2-carboxylic acid)] | 94.3% | 96.8% | 97.2% | 0 | I (Degree of irritation 0-0.1: Grade I (unstimulated)) | 0 | 0 | 0 | 20 | 0 | I (Degree of irritation 0-0.1: Grade I (unstimulated)) | 0 | 0 | 0 | 20 | 0.10 | I (Degree of irritation 0-0.1: Grade I (unstimulated)) | 0 | 0 | 2 | Test result(number of subject) (−) ([2]; 1.0 wt %): 18; Area (mAU*min) 30 min [3]: 0.168 mAU*min; Area (mAU*min) 180 min [3]: 0 mAU*min; Area (mAU*min) Initial [3]: 0.305 mAU*min; Removal of Heavy metals Cd (%) ([4]; 0.1 wt % aqueous solution): 90.4%; Removal of Heavy metals Cd (%) ([4]; 0.5 wt % aqueous solution): 91.3%; Removal of Heavy metals Cd (%) ([4]; 1.0 wt % aqueous solution): 93.4%; Removal of Heavy metals Pb (%) ([5]; 0.1 wt % aqueous solution): 91.4%; Removal of Heavy metals Pb (%) ([5]; 0.5 wt % aqueous solution): 93.4%; Removal of Heavy metals Pb (%) ([5]; 1.0 wt % aqueous solution): 94.0%
O=C(O)CN1CCCN(CC(=O)O)CCN(CC(=O)O)CCCN(CC(=O)O)CC1 [Embodiment 9, 2,2′,2″,2′″-(1,4,8,11-tetraazacyclotetradecane-1,4,8,11-tetrayl)tetraacetic acid] | 94.3% | 96.9% | 97.3% | 0 | I (Degree of irritation 0-0.1: Grade I (unstimulated)) | 0 | 0 | 0 | 20 | 0 | I (Degree of irritation 0-0.1: Grade I (unstimulated)) | 0 | 0 | 0 | 20 | 0.10 | I (Degree of irritation 0-0.1: Grade I (unstimulated)) | 0 | 0 | 2 | Test result(number of subject) (−) ([2]; 1.0 wt %): 18; Area (mAU*min) 30 min [3]: 0.182 mAU*min; Area (mAU*min) 180 min [3]: 0 mAU*min; Area (mAU*min) Initial [3]: 0.305 mAU*min; Removal of Heavy metals Cd (%) ([4]; 0.1 wt % aqueous solution): 89.1%; Removal of Heavy metals Cd (%) ([4]; 0.5 wt % aqueous solution): 91.3%; Removal of Heavy metals Cd (%) ([4]; 1.0 wt % aqueous solution): 91.9%; Removal of Heavy metals Pb (%) ([5]; 0.1 wt % aqueous solution): 88.9%; Removal of Heavy metals Pb (%) ([5]; 0.5 wt % aqueous solution): 91.0%; Removal of Heavy metals Pb (%) ([5]; 1.0 wt % aqueous solution): 91.4%
